The source of these data is patent US20110059869A1, “Method for Increasing Enzymatic Reactivity” (RIKEN, priority 2008, published 2011).

Molecules are shown by their SMILES.

Data set [1] is described as follows: State of streptavidin bead reaction solution during enzymatic reaction. Type of data set: physicochemical. Conditions: 0.6 M additive; extended / three hours restriction enzyme reaction. The text has this:
Thus, with no nonuniformity in enzymatic activity, the various enzymatic reactions were promoted and the quantity of target DNA recovered increased.
This was attributed to characteristics such as the viscosity and diffusing effect of trehalose or sorbitol.

A further data set relates to HindIII. Briefly: DNA fragment II HindIII cleavage reactions on bead and plate surfaces with added substances. Type of data set: biochemical. The settings on record: 0.6 M sorbitol; beads and plate; not of the same degree as trehalose. On the procedure:
The effect of the presence of substances other than trehalose on enzymatic activity was examined for enzymatic reactions on the surface of a support. Sorbitol was employed as the added reagent. Trehalose was also added and a sorbitol+trehalose reaction system was examined (Scheme 7).
HindIII cleavage reactions were conducted on biotin-labeled DNA fragment II (Seq. ID No. 5, Scheme 4) on the surface of beads by adding trehalose, glucose, sorbitol, and betaine, and the 104 by DNA fragment released was detected. Paramagnetic streptavidin beads were washed with accessory 1× binding buffer, recovered with a magnetic stand to remove the supernatant, and suspended in the same buffer. […] The precipitate of DNA fragments thus obtained was dissolved in 1× TE (pH 7.5) and analyzed with Bioanalyzer DNA 1000 assay (Agilent Technologies).
Trehalose and sorbitol were added and a HindIII cleavage reaction was conducted on a horizontal plate surface on biotin-labeled DNA fragment II (Seq. ID No. 5, Scheme 4) and the 104 by DNA fragments that were released were detected. […] The precipitate of DNA fragments obtained was dissolved in 1× TE (pH 7.5) and analyzed with Bioanalyzer DNA 1000 assay (Agilent Technologies).

For the compound `OC[C@@H](O)[C@@H](O)[C@H](O)[C@@H](O)CO` [sorbitol, D(+) sorbitol], in data set [1], the “uniformity of beads in the reaction solution” value is reported as “uniformity in the solution of beads was maintained”. The “enzymatic activity (yield of DNA recovered)” value in the data set on HindIII was “high enzymatic activity was exhibited on all reaction surfaces”.
